Data from US11396499B2, “Lysosomal acid lipase assay” (University of Washington, priority 2018, dated 2022).

Assays:
[1] = molecular target: T1, lysosomal acid lipase (LAL) (Homo sapiens, UniProt P38571); assay: Testing potential LAL substrates with DBS; type: biochemical
T1 construct: from tissue; host or cells: dried blood spots (DBS) from healthy adults, healthy children and LAL-deficient patients
T1 sequence (P38571 77-399): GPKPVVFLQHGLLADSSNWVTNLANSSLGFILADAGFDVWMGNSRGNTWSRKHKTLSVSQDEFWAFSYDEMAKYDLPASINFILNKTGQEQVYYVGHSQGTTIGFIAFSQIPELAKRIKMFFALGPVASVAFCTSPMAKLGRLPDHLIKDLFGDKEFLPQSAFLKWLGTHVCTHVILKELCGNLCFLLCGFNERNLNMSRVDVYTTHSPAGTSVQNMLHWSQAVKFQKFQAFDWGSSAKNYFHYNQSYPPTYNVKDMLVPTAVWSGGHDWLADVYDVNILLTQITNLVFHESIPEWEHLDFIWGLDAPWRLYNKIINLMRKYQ
Method: Compound 8. Assay cocktail contained 0.69 mM Compound 8, 10 mM internal standard (analog of the product containing an n-hexanoyl amide tail instead of the n-pentanoyl amide tail) in 0.15 M sodium acetate, pH 4.02, containing 0.1% Triton X-100. Assay cocktail (30 mL) was added to a 3 mm DBS punch from a normal adult and 10 mL of 30 mM aqueous Lalistat-2 or H2O was added, and the mixture was incubated at 37° C. for 16 hr in an Eppendorf tube with orbital shaking at 250 rpm. The assay was quenched by addition of 120 mL of acetonitrile. The sample was centrifuged for 5 min at 3000×g, and 120 mL of supernatant was transferred to an autosampler plate. Water (60 mL) was added to the well, and 10 mL was injected for UPLC-MS/MS. Compound 8 product was analyzed by UPLC-MS/MS using the authentic product as a standard to establish UPLC and MS/MS conditions.
Compound 9. Assay cocktail contained 0.3 mM Compound 9 (from a 10 mM DMSO stock) in a 14:1 solution of 0.15 M sodium acetate pH 4.0 1% Triton-X-100 and 0.5% m/v cardiolipin in methanol. […] Compound 9 product was analyzed by UPLC-MS/MS using the authentic product as a standard to establish UPLC and MS/MS conditions.
Compounds 10-13. […] Samples were immediately read on a plate-reader fluorometer with an excitation wavelength of 355 nm and emission wavelength of 460 nm. […]

[2] = molecular target: T1, lysosomal acid lipase (LAL); assay: Previous fluorometric LAL assay (Hamilton et al.) with palmitoyl-4MU with and without Lalistat-2 in DBS; type: biochemical
Description: LAL is detected in leukocytes or fibroblasts using radiometric, immunologic, or fluorescence assays (The metabolic and molecular bases of inherited disease. 8th Ed. New York (NY): McGraw-Hill; 2001. p. 3827-3387). Hamilton and colleagues recently developed a fluorometric assay to detect LAL in dried blood spots (DBS) (Hamilton et al., Clin Chim Acta 2012; 413:1207-10). The assay is based on the release of 4-methylumbelliferone from its ester with palmitic acid. However, the substrate is not specific for LAL, and the method requires two assays performed in parallel, the first in the presence of a LAL-specific covalent inactivator Lalistat-2. LAL activity is calculated from the difference in these 2 assays.
A concentration of P-PMHC in the mixture of 3 mmol/L was settled on based on a combination of high LAL activity and minimal background. The original assay described by Hamilton et al. (Clin Chim Acta 2012; 413:1207-10) used 40 μL of an aqueous extract of a 3-mm DBS added to 160 μL of assay mixture. To keep the solvent volumes for the liquid-liquid extraction to a minimum, thus avoiding long times for solvent removal, 10 μL of an aqueous extract of a 3-mm DBS punch was added to 30 μL of assay mixture.

| Compound | detectable LAL activity when tested with DBS [1] | specific activity for the LAL component ([2]; 3-mm punch from an identical DBS, previous fluorometric assay with and without Lalistat-2) [µmol/h/L] | fold lower than the activity measured with the UPLC-MS/MS assay ([2]; 466 versus 874 μmol/h/L, identical DBS) [fold] | fraction of the substrate hydrolyzed by esterases/lipases in DBS other than LAL ([2]; DBS) |
| --- | --- | --- | --- | --- |
| 4-propyl-8-methyl-7-palmitoyloxycoumarin [Compound 1] | None of these compounds displayed detectable LAL activity |  |  |  |
| CCCCCCCCCCCCCCCC(=O)Oc1ccc2c(C)cc(=O)oc2c1 [palmitoyl-4MU] | displayed measurable LAL activity | 466 | 1.9 | about one third |
